{
  "source": "ChEMBL document CHEMBL1201862",
  "about": "“PubChem BioAssay data set” (2004)",
  "key": {"[1]": {"target": "T1, Heat shock factor protein 1 (Mus musculus, UniProt P38532)", "T1 sequence (P38532 whole entry)": "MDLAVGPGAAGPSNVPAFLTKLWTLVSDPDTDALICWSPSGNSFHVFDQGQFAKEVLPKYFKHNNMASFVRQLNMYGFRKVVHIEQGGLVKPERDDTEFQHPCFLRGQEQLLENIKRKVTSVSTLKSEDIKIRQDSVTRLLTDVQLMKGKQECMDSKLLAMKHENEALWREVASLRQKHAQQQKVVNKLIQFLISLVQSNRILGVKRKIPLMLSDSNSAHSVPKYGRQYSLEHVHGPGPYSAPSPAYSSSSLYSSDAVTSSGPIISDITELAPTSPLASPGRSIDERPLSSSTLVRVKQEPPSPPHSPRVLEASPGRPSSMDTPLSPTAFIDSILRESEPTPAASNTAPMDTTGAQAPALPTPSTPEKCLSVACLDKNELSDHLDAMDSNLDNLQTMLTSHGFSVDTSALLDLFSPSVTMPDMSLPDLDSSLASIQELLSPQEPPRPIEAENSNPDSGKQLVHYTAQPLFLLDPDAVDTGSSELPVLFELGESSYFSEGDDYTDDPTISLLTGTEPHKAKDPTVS", "assay": "decrease of HSF1-responsive luciferase luminescence – cell-based, NIH3T3, dose retest, confirmation (AID 2382);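 also: NIH3T3 fibroblasts with HSF1-driven luciferase reporter stressed by proteasome inhibitor MG132; luminescence from HSF1-driven luciferase expression after 8 hours of MG132 stress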", "type": "functional"}, "[2]": {"target": "T2, Replicative DNA helicase DnaB (Mycobacterium tuberculosis, UniProt P9WMR3)", "T2 sequence (P9WMR3 whole entry)": "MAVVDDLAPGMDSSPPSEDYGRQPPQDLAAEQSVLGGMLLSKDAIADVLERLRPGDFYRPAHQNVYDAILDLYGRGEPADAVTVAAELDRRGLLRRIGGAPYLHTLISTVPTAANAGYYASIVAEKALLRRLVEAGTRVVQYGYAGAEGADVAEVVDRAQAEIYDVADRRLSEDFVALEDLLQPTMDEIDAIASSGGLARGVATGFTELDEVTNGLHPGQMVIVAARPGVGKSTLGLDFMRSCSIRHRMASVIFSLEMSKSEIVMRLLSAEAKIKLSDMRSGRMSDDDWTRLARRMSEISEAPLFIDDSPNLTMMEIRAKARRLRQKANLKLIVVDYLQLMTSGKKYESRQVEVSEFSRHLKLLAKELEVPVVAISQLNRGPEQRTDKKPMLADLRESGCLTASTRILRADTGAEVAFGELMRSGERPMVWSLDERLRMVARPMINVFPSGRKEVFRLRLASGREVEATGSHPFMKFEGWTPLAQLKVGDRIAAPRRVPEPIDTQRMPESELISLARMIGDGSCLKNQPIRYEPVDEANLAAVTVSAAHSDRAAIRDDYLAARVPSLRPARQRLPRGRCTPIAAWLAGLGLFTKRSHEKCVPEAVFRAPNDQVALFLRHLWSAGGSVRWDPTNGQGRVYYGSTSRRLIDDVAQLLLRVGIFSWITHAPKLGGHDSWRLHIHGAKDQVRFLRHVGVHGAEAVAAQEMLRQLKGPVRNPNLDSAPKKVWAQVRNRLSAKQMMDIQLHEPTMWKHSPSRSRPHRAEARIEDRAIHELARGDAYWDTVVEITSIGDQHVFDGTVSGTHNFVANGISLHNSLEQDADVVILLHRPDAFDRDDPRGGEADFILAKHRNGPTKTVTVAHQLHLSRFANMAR", "assay": "DnaB intein splicing inhibitors, dose response, biochemical, cell-free fluorescence (AID 449749)", "type": "functional"}, "Protein RecA": {"target": "T3, Protein RecA (Mycobacterium tuberculosis, UniProt P9WHJ3)", "T3 sequence (P9WHJ3 whole entry)": "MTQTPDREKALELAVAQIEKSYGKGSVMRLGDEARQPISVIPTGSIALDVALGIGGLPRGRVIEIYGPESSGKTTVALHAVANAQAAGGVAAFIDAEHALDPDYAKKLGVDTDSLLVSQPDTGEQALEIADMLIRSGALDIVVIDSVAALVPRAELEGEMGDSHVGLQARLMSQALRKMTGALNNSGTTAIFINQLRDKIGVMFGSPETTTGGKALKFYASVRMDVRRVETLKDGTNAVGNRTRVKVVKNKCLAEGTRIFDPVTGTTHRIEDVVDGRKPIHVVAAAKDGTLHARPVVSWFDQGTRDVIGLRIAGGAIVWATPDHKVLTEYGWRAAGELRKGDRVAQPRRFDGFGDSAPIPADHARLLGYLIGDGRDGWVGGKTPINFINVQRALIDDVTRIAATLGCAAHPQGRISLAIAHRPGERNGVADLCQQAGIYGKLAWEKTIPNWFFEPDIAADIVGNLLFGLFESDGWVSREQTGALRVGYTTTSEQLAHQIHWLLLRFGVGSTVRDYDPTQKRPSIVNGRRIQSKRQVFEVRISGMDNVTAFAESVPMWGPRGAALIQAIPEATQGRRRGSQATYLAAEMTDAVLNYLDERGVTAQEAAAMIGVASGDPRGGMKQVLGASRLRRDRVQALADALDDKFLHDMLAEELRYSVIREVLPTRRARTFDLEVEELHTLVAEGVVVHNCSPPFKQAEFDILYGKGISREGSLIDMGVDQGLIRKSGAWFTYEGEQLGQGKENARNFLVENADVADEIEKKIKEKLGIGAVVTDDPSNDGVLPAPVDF", "assay": "Fluorescence Cell-Free Homogeneous Dose Retest to Identify Inhibitors of RecA-Intein Splicing Activity. [Related pubchem assays (depositor defined):AID2097, AID2223, AID489010, AID492950]", "type": "functional"}, "Genome polyprotein": {"target": "Genome polyprotein (dengue virus type 2, UniProt P29990)", "sequence (P29990 2492-3391 limits assumed)": "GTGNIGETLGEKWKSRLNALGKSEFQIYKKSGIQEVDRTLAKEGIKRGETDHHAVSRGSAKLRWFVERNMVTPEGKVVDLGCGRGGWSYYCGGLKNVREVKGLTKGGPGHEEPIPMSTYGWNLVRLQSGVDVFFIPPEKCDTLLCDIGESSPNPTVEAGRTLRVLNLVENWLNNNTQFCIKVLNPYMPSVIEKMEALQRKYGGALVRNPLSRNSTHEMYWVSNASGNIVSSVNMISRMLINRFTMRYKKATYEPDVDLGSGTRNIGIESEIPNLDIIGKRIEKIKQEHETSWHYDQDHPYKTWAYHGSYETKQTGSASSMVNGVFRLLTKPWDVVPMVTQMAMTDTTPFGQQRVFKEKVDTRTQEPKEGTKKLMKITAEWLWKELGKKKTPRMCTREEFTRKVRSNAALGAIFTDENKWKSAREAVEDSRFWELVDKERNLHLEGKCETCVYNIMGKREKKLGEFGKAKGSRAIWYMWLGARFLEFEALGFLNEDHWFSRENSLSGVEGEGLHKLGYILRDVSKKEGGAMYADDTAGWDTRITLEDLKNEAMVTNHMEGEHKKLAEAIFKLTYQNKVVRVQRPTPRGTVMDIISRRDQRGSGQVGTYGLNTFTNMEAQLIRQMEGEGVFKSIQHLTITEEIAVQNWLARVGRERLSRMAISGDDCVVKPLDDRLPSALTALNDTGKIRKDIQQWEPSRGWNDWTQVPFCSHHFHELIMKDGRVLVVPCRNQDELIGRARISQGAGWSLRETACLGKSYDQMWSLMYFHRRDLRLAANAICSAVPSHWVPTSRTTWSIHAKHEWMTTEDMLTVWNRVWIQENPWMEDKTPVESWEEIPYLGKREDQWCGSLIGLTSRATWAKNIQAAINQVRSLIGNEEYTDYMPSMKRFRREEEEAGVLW", "assay": "flavivirus cap methylation enzyme inhibition – biochemical, confirmation dose response, primary screen (AID 588689)", "type": "functional"}, "[3]": {"target": "T4, RNA-binding protein pos-1 (Caenorhabditis elegans, UniProt G5EF15)", "T4 sequence (G5EF15 whole entry)": "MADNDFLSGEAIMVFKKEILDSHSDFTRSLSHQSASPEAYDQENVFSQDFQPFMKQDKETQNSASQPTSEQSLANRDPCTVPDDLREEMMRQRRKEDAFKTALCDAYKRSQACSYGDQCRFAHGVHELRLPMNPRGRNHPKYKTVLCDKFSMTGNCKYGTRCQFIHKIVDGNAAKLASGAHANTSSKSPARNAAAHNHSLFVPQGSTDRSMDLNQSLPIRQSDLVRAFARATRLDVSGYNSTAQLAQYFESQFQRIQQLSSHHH", "assay": "disruptors of C. elegans POS-1 RNA interaction – biochemical, fluorescence polarization, dose response (AID 1964);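 also: purified POS-1 fused to maltose binding protein made in E. coli; potency of compounds blocking POS-1 binding to fluorescent RNA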"}, "[4]": {"target": "T5, Zinc finger protein mex-5 (Caenorhabditis elegans, UniProt Q9XUB2)", "T5 sequence (Q9XUB2 whole entry)": "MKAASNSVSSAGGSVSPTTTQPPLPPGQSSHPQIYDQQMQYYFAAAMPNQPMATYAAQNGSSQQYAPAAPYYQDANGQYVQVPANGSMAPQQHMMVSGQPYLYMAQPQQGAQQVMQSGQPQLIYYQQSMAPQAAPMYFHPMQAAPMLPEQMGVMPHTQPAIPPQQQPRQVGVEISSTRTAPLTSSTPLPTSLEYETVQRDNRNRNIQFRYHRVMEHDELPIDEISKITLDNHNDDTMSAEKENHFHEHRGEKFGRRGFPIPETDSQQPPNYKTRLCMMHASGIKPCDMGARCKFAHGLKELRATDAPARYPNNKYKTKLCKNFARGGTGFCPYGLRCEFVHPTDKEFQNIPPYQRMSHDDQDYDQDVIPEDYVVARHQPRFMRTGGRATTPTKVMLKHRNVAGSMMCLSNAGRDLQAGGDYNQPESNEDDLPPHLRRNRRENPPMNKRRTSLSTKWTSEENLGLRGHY", "assay": "potency of MEX-5 RNA-binding blockers – biochemical, C. elegans, fluorescence polarization, dose response (AID 1960)"}, "[5]": {"target": "T6, Voltage-gated N-type calcium channel alpha-1B subunit/Amyloid beta A4 precursor protein-binding family A member 1 (Homo sapiens, UniProt Q00975+Q02410)", "T6 sequence (Q00975 whole entry)": "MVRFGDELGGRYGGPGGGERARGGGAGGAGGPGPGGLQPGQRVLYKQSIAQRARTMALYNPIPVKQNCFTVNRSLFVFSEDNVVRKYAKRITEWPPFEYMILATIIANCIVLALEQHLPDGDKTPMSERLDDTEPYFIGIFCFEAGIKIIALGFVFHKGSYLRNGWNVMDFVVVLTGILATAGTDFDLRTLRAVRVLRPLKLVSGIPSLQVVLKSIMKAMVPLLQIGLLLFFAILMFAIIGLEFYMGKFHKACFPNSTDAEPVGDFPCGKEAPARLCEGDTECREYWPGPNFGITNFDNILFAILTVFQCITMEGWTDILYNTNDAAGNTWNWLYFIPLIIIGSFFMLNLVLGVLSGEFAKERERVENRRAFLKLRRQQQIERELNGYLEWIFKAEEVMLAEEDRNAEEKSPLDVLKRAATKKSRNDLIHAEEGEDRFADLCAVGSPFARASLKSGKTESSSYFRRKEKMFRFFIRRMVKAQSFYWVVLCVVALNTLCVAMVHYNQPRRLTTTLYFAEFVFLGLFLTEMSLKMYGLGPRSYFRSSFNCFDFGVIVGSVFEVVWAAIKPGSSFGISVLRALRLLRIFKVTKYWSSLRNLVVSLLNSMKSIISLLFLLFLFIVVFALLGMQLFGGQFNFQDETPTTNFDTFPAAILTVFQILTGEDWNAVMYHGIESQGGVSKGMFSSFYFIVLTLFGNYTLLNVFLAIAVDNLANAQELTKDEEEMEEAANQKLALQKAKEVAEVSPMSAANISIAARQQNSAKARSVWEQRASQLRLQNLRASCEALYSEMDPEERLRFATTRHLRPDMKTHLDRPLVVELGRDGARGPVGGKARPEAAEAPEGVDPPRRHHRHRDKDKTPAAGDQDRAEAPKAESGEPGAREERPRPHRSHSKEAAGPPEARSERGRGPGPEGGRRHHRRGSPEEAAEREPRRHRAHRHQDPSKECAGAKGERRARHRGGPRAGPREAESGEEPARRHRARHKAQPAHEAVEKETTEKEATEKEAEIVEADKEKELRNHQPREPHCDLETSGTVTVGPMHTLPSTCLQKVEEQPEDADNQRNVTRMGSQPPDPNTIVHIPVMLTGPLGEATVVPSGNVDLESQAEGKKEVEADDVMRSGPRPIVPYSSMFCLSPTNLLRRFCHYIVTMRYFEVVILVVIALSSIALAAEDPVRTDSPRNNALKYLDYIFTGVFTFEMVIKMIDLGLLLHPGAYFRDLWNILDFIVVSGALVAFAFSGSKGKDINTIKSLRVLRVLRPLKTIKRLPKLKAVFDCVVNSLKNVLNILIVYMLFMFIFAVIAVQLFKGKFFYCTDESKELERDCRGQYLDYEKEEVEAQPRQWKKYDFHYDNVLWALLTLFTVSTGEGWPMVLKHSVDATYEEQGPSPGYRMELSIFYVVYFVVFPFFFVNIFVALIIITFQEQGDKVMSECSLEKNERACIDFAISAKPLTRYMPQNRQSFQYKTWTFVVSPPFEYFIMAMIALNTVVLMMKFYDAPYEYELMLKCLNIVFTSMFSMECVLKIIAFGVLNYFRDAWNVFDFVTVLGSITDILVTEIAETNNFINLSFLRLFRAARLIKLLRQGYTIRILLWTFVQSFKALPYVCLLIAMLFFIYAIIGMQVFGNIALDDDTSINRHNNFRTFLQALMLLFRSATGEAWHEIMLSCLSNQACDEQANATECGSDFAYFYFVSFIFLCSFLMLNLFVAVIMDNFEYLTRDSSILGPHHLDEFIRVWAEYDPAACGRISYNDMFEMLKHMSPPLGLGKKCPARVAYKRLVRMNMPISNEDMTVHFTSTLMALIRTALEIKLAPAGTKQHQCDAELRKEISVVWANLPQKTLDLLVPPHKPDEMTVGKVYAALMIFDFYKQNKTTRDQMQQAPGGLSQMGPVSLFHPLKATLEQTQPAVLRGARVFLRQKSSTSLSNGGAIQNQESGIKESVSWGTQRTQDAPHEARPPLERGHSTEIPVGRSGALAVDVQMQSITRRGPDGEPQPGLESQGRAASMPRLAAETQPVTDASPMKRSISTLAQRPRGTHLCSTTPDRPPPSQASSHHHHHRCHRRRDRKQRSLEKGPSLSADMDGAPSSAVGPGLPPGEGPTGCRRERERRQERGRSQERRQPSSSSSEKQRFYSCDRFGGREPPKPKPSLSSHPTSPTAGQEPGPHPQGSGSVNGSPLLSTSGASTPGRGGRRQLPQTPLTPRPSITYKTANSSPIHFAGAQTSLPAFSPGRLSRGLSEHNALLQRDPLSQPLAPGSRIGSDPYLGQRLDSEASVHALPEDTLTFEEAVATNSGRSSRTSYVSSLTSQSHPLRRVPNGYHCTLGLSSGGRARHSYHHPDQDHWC", "T6 sequence (Q02410 whole entry)": "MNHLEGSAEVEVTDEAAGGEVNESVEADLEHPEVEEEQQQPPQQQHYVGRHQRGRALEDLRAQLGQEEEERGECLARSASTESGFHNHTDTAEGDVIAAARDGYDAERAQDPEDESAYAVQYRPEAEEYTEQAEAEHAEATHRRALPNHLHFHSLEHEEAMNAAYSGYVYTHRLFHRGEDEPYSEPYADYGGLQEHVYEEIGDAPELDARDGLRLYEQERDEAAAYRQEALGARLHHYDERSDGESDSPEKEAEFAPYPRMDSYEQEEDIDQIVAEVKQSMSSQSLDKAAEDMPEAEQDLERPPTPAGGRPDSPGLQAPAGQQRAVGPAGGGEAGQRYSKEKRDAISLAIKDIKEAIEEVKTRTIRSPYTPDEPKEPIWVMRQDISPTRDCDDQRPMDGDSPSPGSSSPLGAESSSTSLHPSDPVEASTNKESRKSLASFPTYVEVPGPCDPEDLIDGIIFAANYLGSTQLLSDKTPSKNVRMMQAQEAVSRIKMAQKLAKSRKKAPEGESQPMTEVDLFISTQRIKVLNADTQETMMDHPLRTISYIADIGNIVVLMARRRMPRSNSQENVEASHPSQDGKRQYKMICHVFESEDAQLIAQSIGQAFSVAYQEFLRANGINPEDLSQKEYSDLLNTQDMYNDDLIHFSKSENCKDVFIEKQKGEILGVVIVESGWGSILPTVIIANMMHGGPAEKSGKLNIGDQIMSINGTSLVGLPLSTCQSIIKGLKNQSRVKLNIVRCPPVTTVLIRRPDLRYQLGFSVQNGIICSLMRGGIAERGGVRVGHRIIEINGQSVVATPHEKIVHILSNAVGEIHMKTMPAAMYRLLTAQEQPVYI", "type": "protein assay"}, "Large T antigen": {"target": "Large T antigen (Simian virus 40, UniProt P03070)", "sequence (P03070 whole entry)": "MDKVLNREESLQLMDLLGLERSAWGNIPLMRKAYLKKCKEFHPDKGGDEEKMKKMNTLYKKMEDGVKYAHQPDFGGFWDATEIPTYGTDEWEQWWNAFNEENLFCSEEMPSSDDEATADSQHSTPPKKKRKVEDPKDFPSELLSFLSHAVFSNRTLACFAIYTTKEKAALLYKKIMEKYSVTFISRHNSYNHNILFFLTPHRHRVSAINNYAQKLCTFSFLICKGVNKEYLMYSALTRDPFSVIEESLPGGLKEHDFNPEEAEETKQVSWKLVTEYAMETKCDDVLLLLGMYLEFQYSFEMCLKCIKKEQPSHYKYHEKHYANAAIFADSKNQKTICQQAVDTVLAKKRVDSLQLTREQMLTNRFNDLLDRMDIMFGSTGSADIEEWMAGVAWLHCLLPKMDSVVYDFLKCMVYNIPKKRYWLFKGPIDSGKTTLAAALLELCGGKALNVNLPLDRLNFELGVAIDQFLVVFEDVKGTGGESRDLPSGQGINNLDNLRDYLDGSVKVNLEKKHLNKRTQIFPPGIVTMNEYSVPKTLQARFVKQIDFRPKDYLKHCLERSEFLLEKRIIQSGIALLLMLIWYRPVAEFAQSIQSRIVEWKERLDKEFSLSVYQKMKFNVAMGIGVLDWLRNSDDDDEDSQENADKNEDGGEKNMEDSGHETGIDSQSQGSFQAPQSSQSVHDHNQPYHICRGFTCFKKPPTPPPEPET", "type": "functional, Betapolyomavirus macacae"}, "[6]": {"target": "T6, Voltage-gated N-type calcium channel alpha-1B subunit/Amyloid beta A4 precursor protein-binding family A member 1", "type": "protein assay", "remark": "listed apart in the source"}, "[7]": {"target": "T7, Calpain-2 catalytic subunit (Sus scrofa, UniProt P43367)", "T7 sequence (P43367 whole entry)": "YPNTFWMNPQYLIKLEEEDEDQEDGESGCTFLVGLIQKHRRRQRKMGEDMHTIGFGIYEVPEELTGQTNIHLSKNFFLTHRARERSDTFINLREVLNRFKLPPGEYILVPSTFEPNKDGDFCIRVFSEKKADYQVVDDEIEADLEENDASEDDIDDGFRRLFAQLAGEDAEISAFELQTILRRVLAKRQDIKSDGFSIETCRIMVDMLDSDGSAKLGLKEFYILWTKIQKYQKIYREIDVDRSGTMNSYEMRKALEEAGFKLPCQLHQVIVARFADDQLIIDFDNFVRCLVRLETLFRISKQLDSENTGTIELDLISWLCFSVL", "assay": "m-calpain protease blockers, concentration series – biochemical, fluorogenic peptide substrate, dose response (AID 1420)", "type": "functional"}, "[8]": {"assay": "luciferase reporter signal suppression in cells – H4 neuroglioma cells, luminescence, dose response (AID 1990)", "type": "functional, cell-based"}, "BJ [9]": {"test_system": "BJ", "assay": "BJ-TERT fibroblast viability loss – cell-based, RAS-independent, luminescence, dose response (AID 1933)", "type": "functional", "settings": "Homo sapiens"}, "[10]": {"assay": "Luminescence Cell-Based Dose Response HTS to Identify Inhibitors of 5'UTR Stem-Loop Driven Prion Protein mRNA Translation in H4 Neuroglioblastoma Cells. [Related pubchem assays: 1827 (Project Summary), 1813 (Primary HTS)]", "type": "functional"}, "[11]": {"assay": "alpha-synuclein stem-loop luciferase translation blockers – H4 neuroglioma cells, luminescence, confirmation (AID 1988)", "type": "functional, cell-based"}, "BJ [12]": {"test_system": "BJ", "assay": "cells", "type": "functional, cell-based", "settings": "Homo sapiens"}, "BJ [13]": {"test_system": "BJ", "assay": "BJ-TERT-LT-ST fibroblast viability loss – cell-based, RAS-independent, luminescence, dose response (AID 1935);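 also: BJ fibroblasts immortalized with TERT plus LT and ST oncogenes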", "type": "functional", "settings": "Homo sapiens"}, "[14]": {"assay": "DRD fibroblast viability loss – cell-based, non-viral oncogenic, luminescence, dose response (AID 1934)", "type": "functional", "settings": "Homo sapiens"}},
  "note": "Calls of active or inactive are those of the source. Rule as the data show it, for most assays here: actives have a measured EC50 and inactives only a lower limit.",
  "data": [
    {"smiles": "Cc1ccc(SCc2n[nH]c3c2C(c2ccc(C)o2)C(C#N)=C(N)O3)cc1", "note": "(centres undefined)", "values": [
      {"measurement": "EC50", "setting": "[1]", "result": "> 195 µM (not active)"},
      {"measurement": "AC50", "setting": "[2]", "result": "61.4 µM (active)"},
      {"measurement": "EC50", "setting": "Protein RecA", "result": "7.85 µM (active)"},
      {"measurement": "IC50", "setting": "Genome polyprotein", "result": "> 100 µM (active)"}
    ]},
    {"smiles": "COC/C=C/C1=CC2=CC(=O)C(C)(OC(=O)CCC(=O)OC)C(=O)C2=CO1", "note": "(centres undefined)", "values": [
      {"measurement": "EC50", "setting": "[3]", "result": "22.1 µM (active)"},
      {"measurement": "EC50", "setting": "[4]", "result": "17 µM (active)"},
      {"measurement": "IC50", "setting": "[5]", "result": "> 56.8 µM (not active)"},
      {"measurement": "IC50", "setting": "Large T antigen", "result": "> 100 µM (active)"},
      {"measurement": "IC50", "setting": "[6]", "result": "7.43 µM (active)"}
    ]},
    {"smiles": "COc1ccc(OC)c(C(c2nnnn2C2CCCC2)N2CCN(c3ccccc3F)CC2)c1", "note": "(centres undefined)", "values": [
      {"measurement": "IC50", "setting": "[7]", "result": "1.31 µM (not active)"}
    ]},
    {"smiles": "CNC(=S)N=C(Nc1ccc(C)cc1)c1ccccc1", "values": [
      {"measurement": "IC50", "setting": "[5]", "result": "2.38 µM (active)"},
      {"measurement": "IC50", "setting": "[6]", "result": "> 50 µM (inactive)"}
    ]},
    {"smiles": "COCCCNc1nnc(Cc2ccc(Cl)cc2)c(O)n1", "values": [
      {"measurement": "EC50", "setting": "[8]", "result": "9.25 µM (inconclusive)"},
      {"measurement": "EC50", "setting": "BJ [9]", "result": "1.47 µM (active)"},
      {"measurement": "EC50", "setting": "[10]", "result": "9.52 µM (active)"},
      {"measurement": "EC50", "setting": "[11]", "result": "6.13 µM (active)"},
      {"measurement": "EC50", "setting": "BJ [12]", "result": "24.2 µM (active)"},
      {"measurement": "EC50", "setting": "BJ [13]", "result": "0.913 µM (active)"},
      {"measurement": "EC50", "setting": "[14]", "result": "1.04 µM (active)"}
    ]},
    {"smiles": "N#CC1=C(N)Oc2cc(N)ccc2C1c1cc(Br)cs1", "note": "(centres undefined)", "values": [
      {"measurement": "EC50", "setting": "BJ [9]", "result": "11.4 µM (active)"},
      {"measurement": "EC50", "setting": "BJ [12]", "result": "94.1 µM (inconclusive)"},
      {"measurement": "EC50", "setting": "BJ [13]", "result": "20.6 µM (inconclusive)"},
      {"measurement": "EC50", "setting": "[14]", "result": "15.5 µM (inconclusive)"}
    ]},
    {"smiles": "Cc1nc(C)n(CC(O)COc2ccc(C(=O)c3ccccc3)cc2)n1", "note": "(centres undefined)", "values": [
      {"measurement": "IC50", "setting": "[7]", "result": "13.4 µM (not active)"}
    ]}
  ]
}
